# From PubChem BioAssay AID1963978 (Molecular Pharmacology Branch, DTP, NCI, 2024)
# Tested on: 616215-338-R-J1-PDC spheroids with HUVEC/MSC, viability
# Experiment: Anticancer human tumor 616215-338-R-J1-PDC patient-derived colon adenocarcinoma cell line growth inhibition [PI3K]
# Details: for IC50: curve of first compound; for viability, T/C: stronger effect = lower value
# Description: Combinatorial screen of targeted agents with the PI3K inhibitors inavolisib, alpelisib, duvelisib, and copanlisib in multi-cell type tumor spheroids
# A high-throughput screen of multi-cell type tumor spheroids was designed to identify active combinations of targeted small molecules and PI3K pathway inhibitors. Complex spheroids include a stromal component modeled by human endothelial cells (HUVEC) and fibroblasts modeled by human mesenchymal stem cells (MSCs). The concentration ranges selected for each drug and investigational agent were based upon clinically achievable concentrations if the clinical Cmax of the agent was known.
# Compounds. The drugs and investigational agents: inavolisib (NSC800729), alpelisib (NSC765974), duvelisib (NSC772469), copanlisib (NSC816437), ipatasertib (NSC767898), afuresertib (NSC778305), talazoparib (NSC767125), sapanisertib (NSC764658), selumetinib (NSC741078), tovorafenib (DAY101, NSC766906), vemurafenib (NSC761431), ravoxertinib (NSC781343), sotorasib (NSC818433), MRTX1133 (NSC 836407), abemaciclib (NSC 768073), palbociclib (NSC758247), venetoclax (NSC 766270), SY5609 (NSC837396), enzalutamide (NSC755605), and darolutamide (NSC825331), were obtained from the National Cancer Institute (NCI) Developmental Therapeutics Program Chemical Repository. The FDA-approved anticancer drug set is available from the NCI Developmental Therapeutics Program. […] The stock solutions were prepared in dimethyl sulfoxide (DMSO, Sigma-Aldrich, St. Louis, MO, cat. D2650) at 800-fold the tested concentration and stored at -70 degrees C prior to their use. All drugs and investigational agents were tested over a range starting from a high concentration at or near the clinical Cmax and decreasing in half-log increments. If the clinical Cmax for an agent had not been determined, the highest concentration tested was 10 microM.
# Cell Culture. All cells were maintained in an incubator at 37 degrees C and 5% CO2 with 95% humidity. The PDC lines were cultured according to standard operating procedures established by the NCI PDMR (https://pdmr.cancer.gov/sops/default.htm). All PDCs were thawed and cultured in Matrigel-coated flasks prepared with a working solution of 1X Ham's F-12 nutrient mix, without supplementation (Invitrogen, Waltham, MA, cat. 11765054), 100 U/mL penicillin-streptomycin (Invitrogen, cat. 15140122), and 2.5% Matrigel (Corning Inc., Corning, NY, cat. 354248) for the first three passages. The 354836-022-R-J1-PDC, 475296-252-R-J1-PDC, and 997726-040-R-J2-PDC lines were cultured in 6A media, which includes advanced DMEM/F-12 (Thermo Fisher Scientific, cat. 12634028), 10 mM HEPES (Thermo Fisher Scientific, cat. 15630080), 1X GlutaMAX supplement (Thermo Fisher Scientific, cat. 35050061), 0.1 mg/mL primocin (InvivoGen, San Diego, CA, cat. ant-pm-2), 10% defined fetal bovine serum, heat inactivated (HyClone Laboratories Inc., Logan, UT, cat. SH30070.03HI), 50% L-WRN conditioned media (ATCC, cat. CRL-3276), 1.25 mM N-Acetyl-L-cysteine (Sigma-Aldrich, cat. A9165), 10 mM nicotinamide (Sigma-Aldrich, cat. N0636), 1X B-27 supplement (Thermo Fisher Scientific, cat. 17504044), 1X N-2 supplement (Thermo Fisher Scientific, cat. 17502048), and 10 microM Y-27632 dihydrochloride (Tocris Bioscience, Bristol, United Kingdom, cat. 1254). The 624824-186-R-J2-PDC line was cultured in 6C/Colon 1B media, which includes all 6A media components plus 50 ng/mL human EGF recombinant protein (Thermo Fisher Scientific, cat. PHG0311). […]
# [1] = second compound 0.00316 µM, first compound 0.0316 µM
# [2] = second compound 0.00316 µM, first compound 0.1 µM
# [3] = second compound 0.00316 µM, first compound 0.316 µM
# [4] = second compound 0.00316 µM, first compound 1 µM
# [5] = second compound 0.00316 µM, first compound 3.16 µM
# [6] = second compound 0.00316 µM, first compound 10 µM
# [7] = second compound 0.01 µM, first compound 0.0316 µM
# [8] = second compound 0.01 µM, first compound 0.1 µM
# [9] = second compound 0.01 µM, first compound 0.316 µM
# [10] = second compound 0.01 µM, first compound 1 µM
# [11] = second compound 0.01 µM, first compound 3.16 µM
# [12] = second compound 0.01 µM, first compound 10 µM
# [13] = second compound 0.0316 µM, first compound 0.0316 µM
# [14] = second compound 0.0316 µM, first compound 0.1 µM
# [15] = second compound 0.0316 µM, first compound 0.316 µM
# [16] = second compound 0.0316 µM, first compound 1 µM
# [17] = second compound 0.0316 µM, first compound 3.16 µM
# [18] = second compound 0.0316 µM, first compound 10 µM
# [19] = second compound 0.1 µM, first compound 0.0316 µM
# [20] = second compound 0.1 µM, first compound 0.1 µM
# [21] = second compound 0.1 µM, first compound 0.316 µM
# [22] = second compound 0.1 µM, first compound 1 µM
# [23] = second compound 0.1 µM, first compound 3.16 µM
# [24] = second compound 0.1 µM, first compound 10 µM
# [25] = second compound 0.316 µM, first compound 0.0316 µM
# [26] = second compound 0.316 µM, first compound 0.1 µM
# [27] = second compound 0.316 µM, first compound 0.316 µM
# [28] = second compound 0.316 µM, first compound 1 µM
# [29] = second compound 0.316 µM, first compound 3.16 µM
# [30] = second compound 0.316 µM, first compound 10 µM
# [31] = second compound 1 µM, first compound 0.0316 µM
# [32] = second compound 1 µM, first compound 0.1 µM
# [33] = second compound 1 µM, first compound 0.316 µM
# [34] = second compound 1 µM, first compound 1 µM
# [35] = second compound 1 µM, first compound 3.16 µM
# [36] = second compound 1 µM, first compound 10 µM
# 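Also: spheroids exposed to agents for seven days before the viability read.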
compound,measurement,setting,value
C[C@@H](NC(=O)c1ncnc(N)c1Cl)c1ncc(C(=O)Nc2cc(C(F)(F)F)c(Cl)cn2)s1 + CC(Nc1ccc2c(c1)OCCn1cc(N3C(=O)OCC3C(F)F)nc1-2)C(N)=O,IC50,second compound 0.00316 µM,> 10 µM
same,IC50,second compound 0.01 µM,> 10 µM
same,IC50,second compound 0.0316 µM,> 10 µM
same,IC50,second compound 0.1 µM,> 10 µM
same,IC50,second compound 0.316 µM,> 10 µM
same,IC50,second compound 1 µM,7.36 µM
same,"viability, T/C",[1],103%
same,"viability, T/C",[2],101%
same,"viability, T/C",[3],107%
same,"viability, T/C",[4],106%
same,"viability, T/C",[5],96.5%
same,"viability, T/C",[6],88.7%
same,"viability, T/C",[7],102%
same,"viability, T/C",[8],109%
same,"viability, T/C",[9],98.1%
same,"viability, T/C",[10],104%
same,"viability, T/C",[11],93.3%
same,"viability, T/C",[12],74.8%
same,"viability, T/C",[13],95.5%
same,"viability, T/C",[14],104%
same,"viability, T/C",[15],101%
same,"viability, T/C",[16],103%
same,"viability, T/C",[17],115%
same,"viability, T/C",[18],66%
same,"viability, T/C",[19],100%
same,"viability, T/C",[20],104%
same,"viability, T/C",[21],115%
same,"viability, T/C",[22],102%
same,"viability, T/C",[23],99.5%
same,"viability, T/C",[24],65.7%
same,"viability, T/C",[25],121%
same,"viability, T/C",[26],99%
same,"viability, T/C",[27],94.8%
same,"viability, T/C",[28],98.6%
same,"viability, T/C",[29],85.6%
same,"viability, T/C",[30],60.6%
same,"viability, T/C",[31],101%
same,"viability, T/C",[32],95.7%
same,"viability, T/C",[33],88.1%
same,"viability, T/C",[34],98%
same,"viability, T/C",[35],73.7%
same,"viability, T/C",[36],41.4%
CCCS(=O)(=O)Nc1ccc(F)c(C(=O)c2c[nH]c3ncc(-c4ccc(Cl)cc4)cc23)c1F + COc1c(OCCCN2CCOCC2)ccc2c3n(c(=NC(=O)c4cnc(N)nc4)nc12)CCN3,IC50,second compound 0.00316 µM,4.83 µM
same,IC50,second compound 0.01 µM,5.11 µM
same,IC50,second compound 0.0316 µM,4.93 µM
same,IC50,second compound 0.1 µM,2.86 µM
same,IC50,second compound 0.316 µM,< 0.0316 µM
same,IC50,second compound 1 µM,< 0.0316 µM
same,"viability, T/C",[1],91.8%
same,"viability, T/C",[2],96.1%
same,"viability, T/C",[3],99%
same,"viability, T/C",[4],97.9%
same,"viability, T/C",[5],77.9%
same,"viability, T/C",[6],2.29%
same,"viability, T/C",[7],105%
same,"viability, T/C",[8],104%
same,"viability, T/C",[9],98.3%
same,"viability, T/C",[10],94.7%
same,"viability, T/C",[11],84.9%
same,"viability, T/C",[12],3.47%
same,"viability, T/C",[13],105%
same,"viability, T/C",[14],107%
same,"viability, T/C",[15],120%
same,"viability, T/C",[16],106%
same,"viability, T/C",[17],77%
same,"viability, T/C",[18],7.26%
same,"viability, T/C",[19],99%
same,"viability, T/C",[20],92.8%
same,"viability, T/C",[21],87.3%
same,"viability, T/C",[22],93.7%
same,"viability, T/C",[23],45.9%
same,"viability, T/C",[24],9.33%
same,"viability, T/C",[25],53.8%
same,"viability, T/C",[26],35.7%
same,"viability, T/C",[27],38.9%
same,"viability, T/C",[28],38.5%
same,"viability, T/C",[29],27%
same,"viability, T/C",[30],5.18%
same,"viability, T/C",[31],23.3%
same,"viability, T/C",[32],29.3%
same,"viability, T/C",[33],21.3%
same,"viability, T/C",[34],20.1%
same,"viability, T/C",[35],18.7%
same,"viability, T/C",[36],3.73%
CCCS(=O)(=O)Nc1ccc(F)c(C(=O)c2c[nH]c3ncc(-c4ccc(Cl)cc4)cc23)c1F + CC(Nc1ccc2c(c1)OCCn1cc(N3C(=O)OCC3C(F)F)nc1-2)C(N)=O,IC50,second compound 0.00316 µM,4.92 µM
same,IC50,second compound 0.01 µM,4.9 µM
same,IC50,second compound 0.0316 µM,4.61 µM
same,IC50,second compound 0.1 µM,4.47 µM
same,IC50,second compound 0.316 µM,4.68 µM
same,IC50,second compound 1 µM,3.81 µM
same,"viability, T/C",[1],91.3%
same,"viability, T/C",[2],92.7%
same,"viability, T/C",[3],90.8%
same,"viability, T/C",[4],88.8%
same,"viability, T/C",[5],79.9%
same,"viability, T/C",[6],2.03%
same,"viability, T/C",[7],97.9%
same,"viability, T/C",[8],93.1%
same,"viability, T/C",[9],92.2%
same,"viability, T/C",[10],92.9%
same,"viability, T/C",[11],79%
same,"viability, T/C",[12],2.65%
same,"viability, T/C",[13],94.6%
same,"viability, T/C",[14],103%
same,"viability, T/C",[15],91.3%
same,"viability, T/C",[16],95.4%
same,"viability, T/C",[17],72.9%
same,"viability, T/C",[18],3.28%
same,"viability, T/C",[19],107%
same,"viability, T/C",[20],98%
same,"viability, T/C",[21],92.7%
same,"viability, T/C",[22],103%
same,"viability, T/C",[23],69.9%
same,"viability, T/C",[24],3.51%
same,"viability, T/C",[25],103%
same,"viability, T/C",[26],103%
same,"viability, T/C",[27],109%
same,"viability, T/C",[28],102%
same,"viability, T/C",[29],73.3%
same,"viability, T/C",[30],4.84%
same,"viability, T/C",[31],108%
same,"viability, T/C",[32],98.1%
same,"viability, T/C",[33],106%
same,"viability, T/C",[34],102%
same,"viability, T/C",[35],58.8%
same,"viability, T/C",[36],4.52%
